Data reported in patent EP0962457B1, “Piperidones as tachykinin antagonists” (Pfizer Limited, priority 1998, dated 1999).
Where two headings read alike, the source gives them in different places.

How the values were obtained:
[1] = target: T1, human NK2 receptor (Homo sapiens, UniProt P21452); assay: NK2 receptor affinity: competition with [3H]-NKA for binding to membranes of Chinese hamster ovary cells expressing the cloned human NK2 receptor; details: CHO cell membranes, 90 min, 25°C, read-out: NK2 receptor affinity (pKi) (converted)
T1 construct: expressed in transfected cells; host or cells: Chinese hamster ovary cells (membranes)
T1 sequence (P21452 1-398): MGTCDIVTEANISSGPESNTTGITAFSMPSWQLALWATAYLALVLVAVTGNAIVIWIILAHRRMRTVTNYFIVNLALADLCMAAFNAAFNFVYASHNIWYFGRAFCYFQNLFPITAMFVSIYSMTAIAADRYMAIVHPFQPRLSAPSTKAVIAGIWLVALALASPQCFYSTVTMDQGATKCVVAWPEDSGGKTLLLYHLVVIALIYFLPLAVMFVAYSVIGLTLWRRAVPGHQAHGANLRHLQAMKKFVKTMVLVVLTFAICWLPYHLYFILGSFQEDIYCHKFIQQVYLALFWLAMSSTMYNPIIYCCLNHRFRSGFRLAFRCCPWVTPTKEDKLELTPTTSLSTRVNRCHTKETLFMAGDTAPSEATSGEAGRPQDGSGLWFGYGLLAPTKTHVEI
Experimental: The affinity of the compounds of formula (I) and their salts for the human NK2 receptor can be tested in vitro by testing their ability to compete with [^3H]-NKA (neurokinin A) for binding to membranes prepared from Chinese hamster ovary cells expressing the cloned human NK2 receptor. In this method, washed Chinese hamster ovary cell membranes are prepared as described for the previous method where IM9 cells are used instead. The membranes are incubated (90 min, 25°C) with [^3H]-NKA and with a range of concentrations of the test compound. Non-specific binding was determined in the presence of 10µM NKA.
The affinity of the compounds of Tables 1 and 2 for the human NK2 receptor was tested in vitro by testing their ability to compete with [^3H]-NKA for binding to membranes prepared from Chinese hamster ovary cells expressing the cloned human NK2 receptor using the method set out on page 9.
(§1) In Tables 1 and 2 the "pKi" measurement is the negative logarithm of the molar affinity of the test compound for the receptor as determined in radioligand binding assays using standard protocols. A 1.0 log. unit difference in either the NK2 or NK3 receptor affinity figures corresponds to a 10-fold activity difference.

[2] = In vitro metabolic stability: disappearance half-life in human liver microsomes (HLM/37); assay type: in vitro ADME; details: human liver microsomes HLM/37, test compound 1µM, 37°C, 60 minutes, NADPH, read-out: Metabolic stability (t½)
Experimental: The in vitro metabolic stability of the compounds of the formula (I) and their salts can be tested by incubating samples for 1 hour at 37°C in the presence of a "moderate activity" (re. concentrations of cytochrome p450 enzymes present) human liver microsomal preparation (prepared from human liver homogenates). The samples were analysed by HPLC at regular intervals during this one hour period and the half-life (t½) determined (in minutes).
The metabolic stability of the compounds of Tables 1 and 2 was determined in vitro by the method described on page 10 according to the following experimental protocol.
Transplant-quality human liver tissue was obtained from the International Institute for the Advancement of Medicine (Exton, PA). The donors ranged in age from 26 to 65 years old and included 3 males and 3 females. Hepatic microsomes were prepared from individual human livers by the process of differential centrifugation. Briefly, the liver tissue was homogenised in 50mM Tris HCI (pH 7.4) containing 250mM sucrose and then centrifuged at 9,000G for 20 minutes to remove the cell debris and nuclear fraction. The supernatant layer was removed and further centrifuged at 105,000G for 60 minutes to pellet the microsomal fraction. […] The cytochrome P450 content was determined using the method of Omura, T., Sato, R., J. Biol. Chem., 239, 2379-2385 (1964) and the protein concentration was determined using the method of Lowry et al., J. Biol. Chem., 193, 265-275 (1951), with bovine serum albumin as the protein standard.
The metabolic activities of the 6 major drug metabolising cytochrome P450 enzymes were determined for HLM/37 and compared to values obtained from a bank of individual human livers (n = 19). […]
Aliquots (100µl) were removed from the incubation at 0, 3, 5, 10, 15, 20, 30, 45 and 60 minutes after the addition of NADPH. […] After centrifugation 150µl aliquots were removed and 120µl of each of these analysed by HPLC on a Hypersil HS C18 5µ column (50x4.6mm) with a mobile phase of methanol:water (90:10, by volume) containing 2mM ammonium acetate. […]

[3] = target: T2, NK3 receptor (Cavia porcellus, UniProt P30098); assay: NK3 receptor affinity: inhibition of [3H]-senktide binding to membranes from guinea pig cortex; details: read-out: NK3 receptor affinity (pKi) (converted)
T2 construct: membranes from guinea pig cortex; from tissue; host or cells: guinea pig cortex membranes
T2 sequence (P30098 1-440): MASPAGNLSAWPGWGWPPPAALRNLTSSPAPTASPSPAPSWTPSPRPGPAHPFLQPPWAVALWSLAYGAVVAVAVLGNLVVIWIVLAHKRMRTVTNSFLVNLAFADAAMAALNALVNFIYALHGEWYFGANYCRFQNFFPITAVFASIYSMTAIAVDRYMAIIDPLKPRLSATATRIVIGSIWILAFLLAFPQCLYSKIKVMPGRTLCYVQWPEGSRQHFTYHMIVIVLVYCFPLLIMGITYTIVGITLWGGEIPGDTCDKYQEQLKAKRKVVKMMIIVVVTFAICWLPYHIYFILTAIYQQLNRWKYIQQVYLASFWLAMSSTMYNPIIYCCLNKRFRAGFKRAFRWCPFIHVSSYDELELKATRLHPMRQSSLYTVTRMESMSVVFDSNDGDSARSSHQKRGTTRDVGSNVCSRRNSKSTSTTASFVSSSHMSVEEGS
Experimental: The compounds of the formula (I) and their salts can be tested for NK3 receptor affinity, in vitro, by testing their ability to inhibit [^3H]-senktide binding to membranes from guinea pig cortex using the method of Guard, et al, Br.J.Pharmacol., 99, 767-773 (1990).
The compounds of Tables 1 and 2 were tested for NK3 receptor affinity, in vitro, by the method described on pages 9 and 10 by testing their ability to inhibit [^3H]-senktide binding to membranes from guinea pig cortex using the method of Guard, et al, Br.J.Pharmacol., 99, 767-773 (1990).
as §1

SMILES	Ki [1]	half-life at 1 µM ([2]; pH 7.4)	half-life at 1 µM [2]	Ki [3]
CS(=O)(=O)N1CCC(C2CN(CC[C@]3(c4ccc(Cl)c(Cl)c4)CCC(=O)N(CC4CC4)C3)C2)CC1 [Example 1, (5S)-1-(Cyclopropylmethyl)-5-(3,4-dichlorophenyl)-5-(2-[3-[1-(methylsulfonyl)-4-piperidinyl]-1-azetanyl]ethyl)tetrahydro-2(1H)-pyridinone]	3.98 nM	1.25 h	–	–
CS(=O)(=O)N1CCC(C2CN(CC[C@]3(c4ccc(Cl)c(F)c4)CCC(=O)N(CC4CC4)C3)C2)CC1 [Example 2]	2.51 nM	–	> 2 h	–
CS(=O)(=O)N1CCC(C2CN(CC[C@]3(c4ccc(Cl)c(Cl)c4)CCC(=O)N(CCC4CC4)C3)C2)CC1 [Example 3]	–	–	0.45 h	–
CS(=O)(=O)N1CCC(C2CN(CC[C@]3(c4ccc(Cl)c(Cl)c4)CCC(=O)N(Cc4ccccc4)C3)C2)CC1 [Example 4]	1.26 nM	–	–	–
CS(=O)(=O)N1CCC(C2CN(CC[C@]3(c4ccc(Cl)c(Cl)c4)CCC(=O)N(C4CCCC4)C3)C2)CC1 [Example 5]	1 nM	–	–	25.1 nM
CS(=O)(=O)N1CCC(C2CN(CC[C@]3(c4ccc(Cl)c(Cl)c4)CCC(=O)N(CC4CCCCC4)C3)C2)CC1 [Example 6]	20 nM	–	–	5.01 nM
CS(=O)(=O)N1CCC(C2CN(CC[C@]3(c4ccc(F)c(F)c4)CCC(=O)N(C4CCCCC4)C3)C2)CC1 [Example 7]	3.16 nM	–	–	–
CCS(=O)(=O)N1CCC(C2CN(CC[C@]3(c4ccc(Cl)c(Cl)c4)CCC(=O)N(CC4CC4)C3)C2)CC1 [Example 8, (5S)-1-(Cyclopropylmethyl)-5-(3,4-dichlorophenyl)-5-(2-[3-[1-(ethylsulfonyl)-4-piperidinyl]-1-azetanyl]ethyl)tetrahydro-2(1H)-pyridinone]	6.31 nM	–	–	–
